pIC50: −log10 of the molar value.
Columns and labels:
[1] = target: T1, pseudo-kinase domain (JH2, amino-acids 536-812) of human Wild Type JAK2 (Homo sapiens, UniProt O60674, F794H/W659A/W777A); test: JAK2 LanthaScreen JH2-WT Binding Assay; details: JAK2 JH2-WT 0.145 nM, 50 nM tracer, 1 hour at 25° C.; read-out: JH2 BIND WT
T1 construct: pseudo-kinase domain (JH2, amino-acids 536-812 with 3 surface mutations W659A, W777A, F794H); His (C); purchased BPS Bioscience 79463; host or cells: baculovirus expression system
Outline: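 Compounds, serially diluted, were mixed with 0.145 nM JH2 domain, 50 nM tracer and 0.25 nM streptavidin-Tb cryptate, then incubated 1 hour at 25° C before LanthaScreen reading. Wells containing 2 mM ATP defined non-specific binding. Four-parameter dose-response curves gave IC50.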

[2] = target: T2, catalytic domain (JH1, amino acids 826-1132) of human JAK2 (Homo sapiens, UniProt O60674); test: JAK2 LanthaScreen JH1 Binding Assay; details: JAK2 JH1 1.5 nM, 50 nM tracer, 2 hours at 25° C.; read-out: JH1 BIND
T2 construct: catalytic domain (JH1, amino acids 826-1132) of human JAK2; FLAG (N); biotin (biotinylated); purchased Carna Biosciences 08-445-20N; host or cells: baculovirus expression system
Outline: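 TR-FRET tracer-displacement format: compound IC50 from four-parameter curves after 2 h at 25° C. Reaction held 1.5 nM biotinylated, FLAG-tagged JH1 (aa 826-1132), 50 nM tracer, 0.5 nM Streptavidin-Tb, pH 7.5 Tris buffer; 2 mM ATP set nonspecific background.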

[3] = target: T3, pseudo-kinase domain (JH2, amino-acids 536-812) of human V617F mutant JAK2 (Homo sapiens, UniProt O60674, F794H/V617F/W659A/W777A); test: JAK2 LanthaScreen JH2-V617F Binding Assay; details: JAK2 JH2-V617F 0.26 nM, 50 nM tracer, 1 hour at 25° C.; read-out: JH2 BIND V617F
T3 construct: pseudo-kinase domain (JH2, amino-acids 536-812 with 3 surface mutations W659A, W777A, F794H); His (C); purchased BPS Bioscience 79498; host or cells: baculovirus expression system
Outline: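 This is a TR-FRET tracer-displacement format with a 1 h, 25 °C incubation. It combined 0.26 nM baculovirus-expressed biotinylated JH2-V617F, 50 nM fluorescent JAK2-JH2 tracer and 0.25 nM streptavidin-Tb cryptate in 50 mM Tris pH 7.5, 10 mM MgCl2, 5 mM DTT. Background came from 2 mM ATP, and IC50 values were from four-parameter dose-response fits.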

[4] = target: catalytic domain (JH1, amino acids 808-1132) of human JAK2 (Homo sapiens, UniProt O60674); test: JAK2 HTRF Enzyme Activity Assay; type: biochemical; details: ATP 30 µM, 60 minutes at 25° C.; read-out: V617F ENZ 30 UM
Sequence of catalytic domain (JH1, amino acids 808-1132) of human JAK2 (O60674 808-1132 limits assumed): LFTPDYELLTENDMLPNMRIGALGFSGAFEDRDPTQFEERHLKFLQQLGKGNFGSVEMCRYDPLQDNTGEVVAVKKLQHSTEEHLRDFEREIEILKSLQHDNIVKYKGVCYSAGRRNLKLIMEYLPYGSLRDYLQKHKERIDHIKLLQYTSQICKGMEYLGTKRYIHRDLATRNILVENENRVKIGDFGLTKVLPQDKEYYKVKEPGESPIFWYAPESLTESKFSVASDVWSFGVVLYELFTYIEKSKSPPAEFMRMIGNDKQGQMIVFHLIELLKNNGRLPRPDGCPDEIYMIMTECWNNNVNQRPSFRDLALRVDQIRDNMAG

T2 sequence (O60674 826-1132): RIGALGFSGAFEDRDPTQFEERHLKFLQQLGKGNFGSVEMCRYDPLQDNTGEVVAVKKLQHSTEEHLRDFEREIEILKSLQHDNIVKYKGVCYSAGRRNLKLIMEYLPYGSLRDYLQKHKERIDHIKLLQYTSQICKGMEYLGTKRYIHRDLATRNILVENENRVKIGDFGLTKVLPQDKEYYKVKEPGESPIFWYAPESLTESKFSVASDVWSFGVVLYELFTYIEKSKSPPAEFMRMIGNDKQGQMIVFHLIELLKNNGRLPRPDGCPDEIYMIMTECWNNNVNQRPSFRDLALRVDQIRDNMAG
T3 sequence (O60674 536-812 V617F/W659A/W777A/F794H): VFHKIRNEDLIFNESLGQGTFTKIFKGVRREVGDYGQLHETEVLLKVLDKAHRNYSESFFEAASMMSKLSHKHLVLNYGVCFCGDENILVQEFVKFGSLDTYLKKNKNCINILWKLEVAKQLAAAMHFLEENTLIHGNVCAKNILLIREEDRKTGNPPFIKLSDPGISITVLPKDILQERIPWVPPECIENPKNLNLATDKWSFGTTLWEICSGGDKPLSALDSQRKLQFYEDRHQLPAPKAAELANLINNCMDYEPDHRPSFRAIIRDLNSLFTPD
T1 sequence (O60674 536-812 W659A/W777A/F794H): as the sequence (O60674 536-812 V617F/W659A/W777A/F794H) above, with F82V counted along it

Row | Structure (SMILES) | pIC50 [1] | pIC50 [2] | pIC50 [3] | pIC50 [4]
1 | [2H]C([2H])([2H])n1c(=O)n([C@@H]2CC[C@@H](NC(=O)OC)C2)c2cc(Nc3cc(C(C)(C)O)c4nc(C)n(-c5cnn(C(F)F)c5)c4n3)ncc21 [Example 115, Methyl ((1R,3R)-3-(6-((3-(1-(difluoromethyl)-1H-pyrazol-4-yl)-7-(2-hydroxypropan-2-yl)-2-methyl-3H-imidazo[4,5-b]pyridin-5-yl)amino)-3-(methyl-d3)-2-oxo-2,3-dihydro-1H-imidazo[4,5-c]pyridin-1-yl)cyclopentyl)carbamate] | ≥ 8.00 | < 6.00 | ≥ 8.00 | < 6.00
2 | [2H]C([2H])([2H])n1c(=O)n([C@@H]2CC[C@@](C)(NC(=O)C3CC3)C2)c2cc(Nc3cc(C(=O)N4CCOCC4)c4cccc(C(F)(F)F)c4n3)ncc21 [Example 116, N-((1R,3R)-1-methyl-3-(3-(methyl-d3)-6-((4-(morpholine-4-carbonyl)-8-(trifluoromethyl)quinolin-2-yl)amino)-2-oxo-2,3-dihydro-1H-imidazo[4,5-c]pyridin-1-yl)cyclopentyl)cyclopropanecarboxamide] | ≥ 8.00 | 6.30 to 7.00 | ≥ 8.00 | 6.30 to 7.00
3 | [2H]C([2H])([2H])n1c(=O)n([C@@H]2CC[C@](C)(NC(=O)C3CC3)C2)c2cc(Nc3cc(CO)c4nn(C)c(-c5cnn(C(F)(F)F)c5)c4n3)ncc21 [Example 117, N-((1S,3R)-3-(6-((7-(hydroxymethyl)-2-methyl-3-(1-(trifluoromethyl)-1H-pyrazol-4-yl)-2H-pyrazolo[4,3-b]pyridin-5-yl)amino)-3-(methyl-d3)-2-oxo-2,3-dihydro-1H-imidazo[4,5-c]pyridin-1-yl)-1-methylcyclopentyl)cyclopropanecarboxamide] | ≥ 8.00 | < 6.00 | ≥ 8.00 | < 6.00
4 | [2H]C([2H])([2H])n1c(=O)n([C@@H]2CC[C@@H](NC(=O)OC)C2)c2cc(Nc3ccc4c(n3)c(-c3cnn(C(F)(F)F)c3)nn4CC(C)(C)O)ncc21 [Example 118, Methyl ((1R,3R)-3-(6-((1-(2-hydroxy-2-methylpropyl)-3-(1-(trifluoromethyl)-1H-pyrazol-4-yl)-1H-pyrazolo[4,3-b]pyridin-5-yl)amino)-3-(methyl-d3)-2-oxo-2,3-dihydro-1H-imidazo[4,5-c]pyridin-1-yl)cyclopentyl)carbamate] | ≥ 8.00 | < 6.00 | ≥ 8.00 | < 6.00
5 | [2H]C([2H])([2H])n1c(=O)n([C@@H]2CC[C@](C)(NC(=O)C3CC3)C2)c2cc(Nc3ccc4c(n3)c(-c3cnn(C(F)(F)F)c3)nn4CC(C)(C)O)ncc21 [Example 119, N-((1S,3R)-3-(6-((1-(2-Hydroxy-2-methylpropyl)-3-(1-(trifluoromethyl)-1H-pyrazol-4-yl)-1H-pyrazolo[4,3-b]pyridin-5-yl)amino)-3-(methyl-d3)-2-oxo-2,3-dihydro-1H-imidazo[4,5-c]pyridin-1-yl)-1-methylcyclopentyl)cyclopropanecarboxamide] | ≥ 8.00 | < 6.00 | ≥ 8.00 | < 6.00
6 | [2H]C([2H])([2H])n1c(=O)n([C@H]2CC[C@@](C)(NC(=O)C3CC3)CC2)c2cc(Nc3ccc4c(n3)c(-c3cnn(C(F)(F)F)c3)nn4CC(C)(C)O)ncc21 [Example 120, N-((1s,4s)-4-(6-((1-(2-Hydroxy-2-methylpropyl)-3-(1-(trifluoromethyl)-1H-pyrazol-4-yl)-1H-pyrazolo[4,3-b]pyridin-5-yl)amino)-3-(methyl-d3)-2-oxo-2,3-dihydro-1H-imidazo[4,5-c]pyridin-1-yl)-1-methylcyclohexyl)cyclopropanecarboxamide] | ≥ 8.00 | < 6.00 | ≥ 8.00 | < 6.00
7 | [2H]C([2H])([2H])n1c(=O)n([C@@H]2CC[C@@H](NC(=O)OC)C2)c2cc(Nc3cc(C(=O)N4CCOCC4)c4cc(C)cc(C(F)(F)F)c4n3)ncc21 [Example 135, Methyl ((1R,3R)-3-(3-(methyl-d3)-6-((6-methyl-4-(morpholine-4-carbonyl)-8-(trifluoromethyl)quinolin-2-yl)amino)-2-oxo-2,3-dihydro-1H-imidazo[4,5-c]pyridin-1-yl)cyclopentyl)carbamate] | ≥ 8.00 | < 6.00 | ≥ 8.00 | 6.00 to 6.30
8 | [2H]C([2H])([2H])n1c(=O)n([C@@H]2CC[C@@H](NC(=O)OC)C2)c2cc(Nc3cc(C(C)(C)O)cc(-c4ncc(C(C)(C)O)s4)n3)ncc21 [Example 144, Methyl ((1R,3R)-3-(6-((4-(2-hydroxypropan-2-yl)-6-(5-(2-hydroxypropan-2-yl)thiazol-2-yl)pyridin-2-yl)amino)-3-(methyl-d3)-2-oxo-2,3-dihydro-1H-imidazo[4,5-c)pyridin-1-yl)cyclopentyl)carbamate] | ≥ 8.00 | < 6.00 | ≥ 8.00 | < 6.00
9 | [2H]C([2H])([2H])n1c(=O)n([C@@H]2CC[C@@H](NC(=O)OC)C2)c2cc(Nc3cc(C(C)(C)O)cc(-c4ncc(C(O)(C(F)(F)F)C(F)(F)F)s4)n3)ncc21 [Example 145, Methyl ((1R,3R)-3-(6-((6-(5-(1,1,1,3,3,3-hexafluoro-2-hydroxypropan-2-yl)thiazol-2-yl)-4-(2-hydroxypropan-2-yl)pyridin-2-yl)amino)-3-(methyl-d3)-2-oxo-2,3-dihydro-1H-imidazo[4,5-c]pyridin-1-yl)cyclopentyl)carbamate] | ≥ 8.00 | < 6.00 | ≥ 8.00 | < 6.00
10 | [2H]C([2H])([2H])n1c(=O)n([C@@H]2CC[C@@H](NC(=O)OC)C2)c2cc(Nc3cc(-c4cnccc4C(F)(F)F)cc(-c4ccc(C(F)F)s4)n3)ncc21 [Example 154, Methyl ((1R,3R)-3-(6-((6′-(5-(difluoromethyl)thiophen-2-yl)-4-(trifluoromethyl)-[3,4′-bipyridin]-2′-yl)amino)-3-(methyl-d3)-2-oxo-2,3-dihydro-1H-imidazo[4,5-c]pyridin-1-yl)cyclopentyl)carbamate] | ≥ 8.00 | < 6.00 | ≥ 8.00 | < 6.00
11 | [2H]C([2H])([2H])n1c(=O)n([C@]2([2H])CC[C@@H](NC(=O)OC)C2)c2cc(Nc3cc(C(C)(C)O)cc(-c4ncc(C(F)(F)F)s4)n3)ncc21 [Example 156, Methyl ((1R,3R)-3-(6-((4-(2-hydroxypropan-2-yl)-6-(5-(trifluoromethyl)thiazol-2-yl)pyridin-2-yl)amino)-3-(methyl-d3)-2-oxo-2,3-dihydro-1H-imidazo[4,5-c]pyridin-1-yl)cyclopentyl-3-d)carbamate] | ≥ 8.00 | < 6.00 | ≥ 8.00 | < 6.00
12 | [2H]C([2H])([2H])n1c(=O)n([C@@H]2CC[C@@H](NC(=O)OC)C2)c2cc(Nc3cc(C4CCN(C)CC4)cc(-c4ncc(C(F)(F)F)s4)n3)ncc21 [Example 157, Methyl ((1R,3R)-3-(3-(methyl-d3)-6-((4-(1-methylpiperidin-4-yl)-6-(5-(trifluoromethyl)thiazol-2-yl)pyridin-2-yl)amino)-2-oxo-2,3-dihydro-1H-imidazo[4,5-c]pyridin-1-yl)cyclopentyl)carbamate] | ≥ 8.00 | < 6.00 | ≥ 8.00 | < 6.00
